# Measured values from patent US11998640B2, “Room temperature stable oral calcitonin formulation” (PARK THERAPEUTICS, INC., priority 2016, dated 2024).
# Assays:
# [1] = more potent than human calcitonin; cited from earlier work
# [2] = Binary mixture study: stability of rsCT with individual excipients stored at 40° C. (recovery and purity); type: physicochemical; details: for rsCT stability in binary mixture: 40° C.
# Description: Binary mixtures were prepared by combining about 18 mg of rsCT with about 300 mg of each of the excipients, individually. Each binary mixture was evaluated in the presence or absence of 10% (w/w) water. Control samples included rsCT only. The mixtures were stored at 40° C., were pulled in duplicate after 7 days and 32 days, and were evaluated for recovery (assay activity relative to that of untreated and dried rsCT) and purity.
# [3] = Water content of rsCT and excipient powders by Karl Fischer Coulometric Titration Method 1c; type: physicochemical; details: for Dried Water content: powder after drying in a lyophilizer; for Untreated Water Content: powder in its untreated state
# Description: The stability of rsCT in the binary presence of the tablet core and subcoat excipients, as well as the effect of intrinsic and extrinsic moisture on the stability of those mixtures, was thoroughly examined. Each of the components including rsCT was evaluated in its untreated state and after drying in a lyophilizer (dried). The water content of each powder was determined by Karl Fischer Coulometric Titration Method 1c prior to preparation of the binary mixtures and is presented in Table 1, below.
Molecule,Potency relative to human calcitonin [1],"Average Purity (Area %) ([2]; 10% (v/w) Water Added, T = 7 days at 40° C.)","Average Purity (Area %) ([2]; 10% (v/w) Water Added, T = 32 days at 40° C.)","Average Purity (Area %) ([2]; Untreated Powders, T = 7 days at 40° C.)","Average Purity (Area %) ([2]; Untreated Powders, T = 32 days at 40° C.)",rsCT stability in binary mixture ([2]; in the presence of water and Citric Acid DC F20),rsCT stability in binary mixture ([2]; in the presence of water and Kollicoat IR),rsCT stability in binary mixture ([2]; in the presence of water and Prosolv HD90),Dried Water content [3],Untreated Water Content [3]
"CC(C)C[C@H](NC(=O)[C@H](CCCCN)NC(=O)CNC(=O)[C@H](CC(C)C)NC(=O)[C@@H](NC(=O)[C@@H]1CSSC[C@H](N)C(=O)N[C@@H](CO)C(=O)N[C@@H](CC(N)=O)C(=O)N[C@@H](CC(C)C)C(=O)N[C@@H](CO)C(=O)N[C@@H]([C@@H](C)O)C(=O)N1)C(C)C)C(=O)N[C@@H](CO)C(=O)N[C@@H](CCC(N)=O)C(=O)N[C@@H](CCC(=O)O)C(=O)N[C@@H](CC(C)C)C(=O)N[C@@H](Cc1c[nH]cn1)C(=O)N[C@@H](CCCCN)C(=O)N[C@@H](CC(C)C)C(=O)N[C@@H](CCC(N)=O)C(=O)N[C@H](C(=O)N[C@@H](Cc1ccc(O)cc1)C(=O)N1CCC[C@H]1C(=O)N[C@@H](CCCNC(=N)N)C(=O)N[C@H](C(=O)N[C@@H](CC(N)=O)C(=O)N[C@H](C(=O)NCC(=O)N[C@@H](CO)C(=O)NCC(=O)N[C@H](C(=O)N1CCC[C@H]1C(N)=O)[C@@H](C)O)[C@@H](C)O)[C@@H](C)O)[C@@H](C)O [rsCT, salmon calcitonin]",30-50 times,98.2% Area %,95.1% Area %,98.9% Area %,96.0% Area %,rapidly degraded with concomitant loss of recovery and purity,loss of rsCT activity and loss in purity,rapid loss of rsCT activity and non-concomitant loss in purity,0.90%,8.91%
Magnesium Stearate,,,,,,,,,3.51%,5.00%
